Literature values, collected in the PKSmart pharmacokinetics tables (Seal et al. 2025).

Assay: Lombardo, Berellini, Obach 2018, Drug Metab Dispos 46:1466, doi 10.1124/dmd.118.082966
Conditions: human; for MRT / Vd / clearance / half-life: in vivo, iv; for fraction unbound: plasma

| Structure (SMILES) | MRT [h] | Vd [L/kg] | clearance [mL/min/kg] | half-life [h] | fraction unbound |
| --- | --- | --- | --- | --- | --- |
| CC(NCc1ccc(OCc2cccc(F)c2)cc1)C(N)=O (stereo not given) | 31.2 | 2.19 | 1.17 | 21.7 |  |
| N=C(N)N/N=C1\CCc2c(C(=N)N)cccc21 | 104 | 20 | 3.2 | 65.4 |  |
| CC1(C)SC2C(NC(=O)C(NC(=O)c3cnc4cccnc4c3O)c3ccccc3)C(=O)N2C1C(=O)O (stereo not given) | 1.4 | 0.16 | 1.9 | 1.2 | 0.1 |
| CC(O)C(CO)NC(=O)C1CSSCC(NC(=O)C(N)Cc2ccccc2)C(=O)NC(Cc2ccccc2)C(=O)NC(Cc2c[nH]c3ccccc23)C(=O)NC(CCCCN)C(=O)NC(C(C)O)C(=O)N1 (stereo not given) | 1.3 | 0.19 | 2.38 | 1.7 | 0.35 |
| CCN(CC)CCCC(C)Nc1c2ccc(Cl)cc2nc2ccc(OC)cc12 (stereo not given) | 150 | 45 | 5.1 | 120 |  |
| CC(C)(F)CC(N[C@@H](c1ccc(-c2ccc(S(C)(=O)=O)cc2)cc1)C(F)(F)F)C(=O)NC1(C#N)CC1 (stereo not given in full) | 147 | 1.63 | 0.19 | 108 |  |
| CC(C)C[C@H](NC(=O)CNC(=O)c1cc(Cl)ccc1Cl)B(O)O | 119 | 3.61 | 0.5 | 97 | 0.01 |
| COCC(=O)Nc1c(I)c(C(=O)NCC(O)CO)c(I)c(C(=O)N(C)CC(O)CO)c1I (stereo not given) | 2.6 | 0.22 | 1.4 | 2.6 | 0.99 |
| C/C(=C\c1csc(C)n1)[C@@H]1C[C@@H]2O[C@]2(C)CCC[C@H](C)[C@H](O)C(C)C(=O)C(C)(C)[C@@H](O)CC(=O)O1 (stereo not given in full) | 111 | 14.4 | 2.17 | 92.3 | 0.22 |
| OCCN1CCN(CC/C=C2/c3ccccc3Sc3ccc(C(F)(F)F)cc32)CC1 |  |  | 4.14 | 34.2 |  |
| C[C@H]1COc2c(N3CCN(C)CC3)c(F)c(N)c3c(=O)c(C(=O)O)cn1c23 | 18.3 | 2.42 | 2.2 | 20.1 | 0.82 |
| C[N+](C)(C)C[C@H](O)CC(=O)[O-] | 4.2 | 0.4 | 1.6 | 5 | 1 |
| CC(Oc1ccc(Oc2cnc3ccc(Cl)cc3n2)cc1)C(=O)O (stereo not given) | 63 | 0.19 | 0.05 | 48.2 | 0.0036 |
| C[N+](C)(O)CCCN1c2ccccc2CCc2ccccc21 | 2.6 | 1.9 | 12 | 1.8 |  |
| Cc1c(C)c2ccc(OCCCN3CCN(Cc4ccc(Cl)cc4)CC3)cc2oc1=O | 16.5 | 1.3 | 1.3 | 19.2 | 0.05 |
| CCCc1nc(C(C)(C)O)c(C(=O)O)n1Cc1ccc(-c2ccccc2-c2nnn[nH]2)cc1 |  |  | 0.29 | 10.8 |  |
| CCC(=O)NC[C@@H]1C[C@H]1c1cccc2c1CCO2 | 0.62 | 0.33 | 9.04 | 0.75 |  |
| CCc1[nH]c(=O)[nH]c1C(=O)c1ccncc1 | 1.2 | 0.65 | 9.03 | 1.32 |  |
| COC(=O)C1(OC(=O)c2cncn2[C@H](C)c2ccccc2)CC1 |  |  | 50.1 | 0.24 |  |
| CC[C@@]1(O)C(=O)OCc2c1cc1n(c2=O)Cc2cc3cc(O)ccc3nc2-1 | 1.63 | 0.22 | 2.23 | 1.67 |  |
| CC(C)(C)NC(=O)C1CC[C@H]2[C@@H]3C=CC4=CC(C(=O)O)CC[C@]4(C)[C@H]3CC[C@]12C (stereo not given in full) | 27 | 0.54 | 0.33 | 27 |  |
| C=C[C@@H]1CNCC[C@@H]1CCCc1ccnc2ccc(OC)cc12 | 15.6 | 24.4 | 26 | 12.1 |  |
| O=C(Nc1c(Cl)cncc1Cl)c1ccc(OC(F)F)c(OCC2CC2)c1 |  |  |  |  | 0.01 |
| CC(C1=C(CCN(C)C)Cc2ccccc21)c1ccccn1 (stereo not given) | 5.98 | 2.16 | 4.83 | 4.6 |  |
| CCN1CCC[C@H]1CNC(=O)c1c(O)c(Cl)cc(Cl)c1OC | 15.3 | 1.1 | 1.2 | 14 | 0.06 |
| COc1c(OCCCN2CCOCC2)ccc2c1N=C(NC(=O)c1cnc(N)nc1)N1CCN=C21 | 26.8 | 10.3 | 6.42 | 25.2 |  |

| Structure (SMILES) | MRT [h] | Vd [L/kg] | clearance [mL/min/kg] | half-life [h] | fraction unbound |
| --- | --- | --- | --- | --- | --- |
| N=C(N)NCCCC(NC(=O)C1CCCN1C(=O)C1CSSCCC(=O)NC(Cc2ccc(O)cc2)C(=O)NC(Cc2ccccc2)C(=O)NC(CCC(N)=O)C(=O)NC(CC(N)=O)C(=O)N1)C(=O)NCC(N)=O (stereo not given) | 3.6 | 0.3 | 1.4 | 3 |  |
| CCOC(=O)c1ccc(C#Cc2ccc3c(c2)C(C)(C)CCS3)nc1 | 1.56 | 3.55 | 37.2 | 6.22 |  |
| COc1ccc(CC2c3cc(OC)c(OC)cc3CC[N+]2(C)CCC(=O)OCCCCCOC(=O)CC[N+]2(C)CCc3cc(OC)c(OC)cc3C2Cc2ccc(OC)c(OC)c2)cc1OC (stereo not given) | 0.29 | 0.1 | 5.7 | 0.31 | 0.52 |
| CN(CC(O)=NO)C(=O)C1CCCCC1C(=O)O (stereo not given) | 2.8 | 1 | 6.3 | 2.6 | 1 |
| Nc1nc(Cl)nc2c1ncn2[C@@H]1O[C@H](CO)[C@@H](O)[C@@H]1F | 3.8 | 1.75 | 7.7 | 4 |  |
| Cc1cc(F)ccc1[C@H]1CNCCN1C(=O)N(C)[C@H](C)c1cc(C(F)(F)F)cc(C(F)(F)F)c1 | 12.8 | 3.8 | 5.09 | 10 |  |
| CCOC(=O)Nc1ccc(NCc2ccc(F)cc2)cc1N | 5 | 2.5 | 8.3 | 9 | 0.2 |
| CC(=O)C1CC[C@H]2[C@@H]3CC[C@@H]4C[C@H](O)CC[C@]4(C)[C@H]3CC[C@]12C (stereo not given in full) | 1.5 | 2 | 22 | 4.7 | 0.01 |
| CCOC(=O)C1=C(C)NC(C)=C(C(=O)OC)C1c1cccc([N+](=O)[O-])c1 (stereo not given) | 4.1 | 6.1 | 25 | 8.2 | 0.02 |
| Cc1cnc(C(=O)NCCc2ccc(S(=O)(=O)NC(=O)NC3CCCCC3)cc2)cn1 | 4.8 |  |  |  |  |
| N#Cc1ccccc1-c1cc(-c2ccccn2)cn(-c2ccccc2)c1=O | 229 | 1.36 | 0.1 | 183 | 0.05 |
| Nc1cc(OCC2CC2)c(C(=O)NC2CN3CCC2CC3)cc1Cl (stereo not given) | 12.3 | 3.9 | 5.2 | 13.5 |  |
| Nc1nc(CC(=O)Nc2ccc(CCNC[C@H](O)c3ccccc3)cc2)cs1 | 29.3 | 23.8 | 13.6 | 50 | 0.29 |
| Cc1onc(-c2c(F)cccc2Cl)c1C(=O)NC1C(=O)N2C(C(=O)O)C(C)(C)S[C@H]12 (stereo not given in full) | 1.3 | 0.19 | 2.4 | 1.4 | 0.043 |
| CN(C)C(=N)NC(=N)N | 1.4 | 0.64 | 7.4 | 1.7 |  |
| CCC[S@+](O)CCCN(CC)C[C@@H](O)COc1ccc(C#N)cc1 | 2.65 | 1.8 | 11.3 | 2.4 |  |
| CC(=O)OC1=C2C(C)[C@@H](OC(=O)C(O)C(CC(C)C)NC(=O)OC(C)(C)C)[C@@H]3OC(=O)O[C@]3([C@@H](OC(=O)c3ccccc3)[C@@H]3[C@]4(OC(C)=O)CO[C@@H]4C[C@H](O)[C@@]3(C)C1=O)C2(C)C (stereo not given in full) | 28.4 | 13.8 | 8.12 | 30.1 |  |
| Nc1nc(N/N=C/C2CCCCC2)nc2c1ncn2[C@@H]1O[C@H](CO)[C@@H](O)[C@H]1O | 0.19 | 0.4 | 35.8 | 0.21 |  |
| CCCc1c(O)n2c(N(C)C)nc3ccc(C)cc3[n+]2c1O | 14 | 0.12 | 0.14 | 17 | 0.004 |
| CCCCCCCC/C=C/CCCCCCCC(=O)OC[C@H]1O[C@@H](n2ccc(N)nc2=O)[C@@H](O)[C@@H]1O | 0.51 | 0.14 | 4.53 | 0.36 |  |
| CC(NC(CCc1ccccc1)C(=O)O)C(=O)N1CCCC1C(=O)O (stereo not given) | 4 | 0.38 | 1.6 | 39 |  |
| NC(=O)N1C(=O)C(C(=O)c2cccs2)c2cc(Cl)ccc21 (stereo not given) | 31.6 | 0.11 | 0.058 | 22.7 | 0.01 |
| C[C@@H]([C@@H](O)c1ccc(O)cc1)N1CCC(O)(c2ccccc2)CC1 | 2.6 | 4.4 | 27 | 3.7 | 0.63 |
| CCCN(CCc1cccs1)[C@H]1CCc2c(O)cccc2C1 | 2.6 | 5.7 | 37 | 4 | 0.08 |
| COC(=O)NC(C(=O)N1CCCC1C(=O)Nc1ccc([C@@H]2CC[C@@H](c3ccc(NC(=O)C4CCCN4C(=O)C(NC(=O)OC)C(C)C)cc3)N2c2ccc(C(C)(C)C)cc2)cc1)C(C)C (stereo not given in full) | 23.1 | 2.32 | 1.68 | 28.5 | 0.001 |
| CN(C)C(=O)CCS[C@H](SCCC(=O)O)c1cccc(/C=C/c2ccc3ccc(Cl)cc3n2)c1 | 2.7 | 0.11 | 0.68 | 2.3 | 0.0004 |
